Data published in patent US10597388B2, “Pyridazinone herbicides” (FMC CORPORATION, priority 2014, dated 2020).

Tests used:
Experiment in all cases: Test D controlled growth environment herbicide test, pre- and postemergence
Assay type in all cases: in vivo
[1] = system: Russian thistle (Salsola kali)
In short: (§1)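 Pre-emergence: seeds sown in silt loam soil were sprayed with compound in a non-phytotoxic solvent mix containing surfactant. Post-emergence: plants at 2 to 18 cm (1- to 4-leaf stage) in peat moss/vermiculite medium got the same formulation. Visual 0–100 rating versus controls after 14 to 21 d.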

[2] = system: radish, wild (wild radish, Raphanus raphanistrum)
In short: as §1

[3] = system: canarygrass (Phalaris minor)
In short: as §1

[4] = system: oilseed rape (Brassica napus)
In short: as §1

[5] = system: field violet (Viola arvensis)
In short: as §1

[6] = system: bromegrass, downy (downy bromegrass, Bromus tectorum)
In short: as §1

[7] = system: mustard, wild (wild mustard, Sinapis arvensis)
In short: as §1

[8] = system: oat, wild (wild oat, Avena fatua)
In short: as §1

[9] = system: buckwheat, wild (wild buckwheat, Polygonum convolvulus)
In short: as §1

[10] = system: field poppy (Papaver rhoeas)
In short: as §1

[11] = system: wheat, spring (spring wheat, Triticum aestivum)
In short: as §1

[12] = system: bluegrass (annual bluegrass, Poa annua)
In short: as §1

[13] = system: chamomile (scentless chamomile, Matricaria inodora)
In short: as §1

[14] = Postemergence, 31 g ai/ha, scale 0 to 100 (0 no effect, 100 complete control)
[15] = Postemergence, 125 g ai/ha, visual rating on scale 0 (no effect) to 100 (complete control), 14 to 21 d
[16] = Postemergence, 250 g ai/ha, scale 0 to 100 (0 no effect, 100 complete control)
[17] = Preemergence, 62 g ai/ha, scale 0 to 100 (0 no effect, 100 complete control)
[18] = Preemergence, 125 g ai/ha, scale 0 to 100 (0 no effect, 100 complete control)
[19] = Preemergence, 250 g ai/ha, scale 0 to 100 (0 no effect, 100 complete control)
[20] = postemergence, 62 g ai/ha, scale 0 to 100, 0 no effect, 100 complete control

SMILES: COc1nn(C)c(=O)c(-c2c(C)ccc3ccccc23)c1OC(=O)OC(C)C [Compound 36]
- Russian Thistle plant response rating [1, 14]: 80
- Plant response rating, Russian Thistle [1, 15]: 85
- Plant response rating, Russian Thistle [1, 16]: 90
- Plant response rating (scale of 0 to 100), Russian Thistle ([1]; Preemergence, 31 g ai/ha): 0
- Plant response rating, Russian Thistle [1, 17]: 15
- Plant response rating, Russian Thistle [1, 18]: 10
- Plant response rating, Russian Thistle [1, 19]: 15
- Plant response rating, Russian Thistle [1, 20]: 85
- Radish, Wild plant response rating [2, 14]: 80
- Plant response rating, Radish, Wild [2, 15]: 100
- Plant response rating, Radish, Wild [2, 16]: 100
- Plant response rating (scale of 0 to 100), Radish, Wild ([2]; Preemergence, 31 g ai/ha): 0
- Plant response rating, Radish, Wild [2, 17]: 0
- Plant response rating, Radish, Wild [2, 18]: 50
- Plant response rating, Radish, Wild [2, 19]: 70
- Plant response rating, Radish, Wild [2, 20]: 90
- Canarygrass plant response rating [3, 14]: 15
- Plant response rating, Canarygrass [3, 15]: 55
- Plant response rating, Canarygrass [3, 16]: 80
- Plant response rating (scale of 0 to 100), Canarygrass ([3]; Preemergence, 31 g ai/ha): 0
- Plant response rating, Canarygrass [3, 17]: 45
- Plant response rating, Canarygrass [3, 18]: 40
- Plant response rating, Canarygrass [3, 19]: 65
- Plant response rating, Canarygrass [3, 20]: 40
- Oilseed Rape plant response rating [4, 14]: 75
- Plant response rating, Oilseed Rape [4, 15]: 95
- Plant response rating, Oilseed Rape [4, 16]: 100
- Plant response rating (scale of 0 to 100), Oilseed Rape ([4]; Preemergence, 31 g ai/ha): 0
- Plant response rating, Oilseed Rape [4, 17]: 0
- Plant response rating, Oilseed Rape [4, 18]: 55
- Plant response rating, Oilseed Rape [4, 19]: 65
- Plant response rating, Oilseed Rape [4, 20]: 85
- Field Violet plant response rating [5, 14]: 70
- Plant response rating, Field Violet [5, 15]: 90
- Plant response rating, Field Violet [5, 16]: 90
- Plant response rating (scale of 0 to 100), Field Violet ([5]; Preemergence, 31 g ai/ha): 15
- Plant response rating, Field Violet [5, 17]: 10
- Plant response rating, Field Violet [5, 18]: 70
- Plant response rating, Field Violet [5, 19]: 95
- Plant response rating, Field Violet [5, 20]: 85
- Bromegrass, Downy plant response rating [6, 14]: 10
- Plant response rating, Bromegrass, Downy [6, 15]: 55
- Plant response rating, Bromegrass, Downy [6, 16]: 65
- Plant response rating (scale of 0 to 100), Bromegrass, Downy ([6]; Preemergence, 31 g ai/ha): 0
- Plant response rating, Bromegrass, Downy [6, 17]: 0
- Plant response rating, Bromegrass, Downy [6, 18]: 10
- Plant response rating, Bromegrass, Downy [6, 19]: 35
- Plant response rating, Bromegrass, Downy [6, 20]: 20
- Mustard, Wild plant response rating [7, 14]: 100
- Plant response rating, Mustard, Wild [7, 15]: 100
- Plant response rating, Mustard, Wild [7, 16]: 100
- Plant response rating (scale of 0 to 100), Mustard, Wild ([7]; Preemergence, 31 g ai/ha): 45
- Plant response rating, Mustard, Wild [7, 17]: 85
- Plant response rating, Mustard, Wild [7, 18]: 85
- Plant response rating, Mustard, Wild [7, 19]: 90
- Plant response rating, Mustard, Wild [7, 20]: 100
- Oat, Wild plant response rating [8, 14]: 35
- Plant response rating, Oat, Wild [8, 15]: 85
- Plant response rating, Oat, Wild [8, 16]: 95
- Plant response rating (scale of 0 to 100), Oat, Wild ([8]; Preemergence, 31 g ai/ha): 35
- Plant response rating, Oat, Wild [8, 17]: 45
- Plant response rating, Oat, Wild [8, 18]: 75
- Plant response rating, Oat, Wild [8, 19]: 85
- Plant response rating, Oat, Wild [8, 20]: 80
- Buckwheat, Wild plant response rating [9, 14]: 100
- Plant response rating, Buckwheat, Wild [9, 15]: 100
- Plant response rating, Buckwheat, Wild [9, 16]: 100
- Plant response rating (scale of 0 to 100), Buckwheat, Wild ([9]; Preemergence, 31 g ai/ha): 0
- Plant response rating, Buckwheat, Wild [9, 17]: 0
- Plant response rating, Buckwheat, Wild [9, 18]: 10
- Plant response rating, Buckwheat, Wild [9, 19]: 10
- Plant response rating, Buckwheat, Wild [9, 20]: 100
- Field Poppy plant response rating [10, 14]: 60
- Plant response rating, Field Poppy [10, 15]: 90
- Plant response rating, Field Poppy [10, 16]: 100
- Plant response rating, Field Poppy [10, 17]: 50
- Plant response rating, Field Poppy [10, 18]: 70
- Plant response rating, Field Poppy [10, 19]: 100
- Plant response rating, Field Poppy [10, 20]: 70
- Wheat, Spring plant response rating [11, 14]: 0
- Plant response rating, Wheat, Spring [11, 15]: 0
- Plant response rating, Wheat, Spring [11, 16]: 10
- Plant response rating (scale of 0 to 100), Wheat, Spring ([11]; Preemergence, 31 g ai/ha): 0
- Plant response rating, Wheat, Spring [11, 17]: 0
- Plant response rating, Wheat, Spring [11, 18]: 0
- Plant response rating, Wheat, Spring [11, 19]: 30
- Plant response rating, Wheat, Spring [11, 20]: 0
- Bluegrass plant response rating [12, 14]: 10
- Plant response rating, Bluegrass [12, 15]: 40
- Plant response rating, Bluegrass [12, 16]: 35
- Plant response rating (scale of 0 to 100), Bluegrass ([12]; Preemergence, 31 g ai/ha): 0
- Plant response rating, Bluegrass [12, 17]: 15
- Plant response rating, Bluegrass [12, 18]: 10
- Bluegrass plant response rating [12, 19]: 15
- Plant response rating, Bluegrass [12, 20]: 15
- Chamomile plant response rating [13, 14]: 95
- Plant response rating, Chamomile [13, 15]: 100
- Plant response rating, Chamomile [13, 16]: 100
- Plant response rating, Chamomile [13, 20]: 95
